Assay results published in patent US20260022142A1, “MACROCYCLIC IMMUNOMODULATORS” (Bristol-Myers Squibb Company, priority 2022, published 2026).
Bridge positions count the residues as written; N and C are the ends. Square brackets hold non-standard residues; d marks the D form. Peptide text beside a SMILES is read from it. * marks the point of attachment. Bip = N[C@@H](Cc1ccc(-c2ccccc2)cc1)C(=O)O; Phe(3-Me) = Cc1cccc(C[C@H](N)C(=O)O)c1; Cha = N[C@@H](CC1CCCCC1)C(=O)O; dCha = N[C@H](CC1CCCCC1)C(=O)O; dNle = CCCC[C@@H](N)C(=O)O; Carboxymethyl = O=C(O)C*; Orn = NCCC[C@H](N)C(=O)O; Aun = NCCCCCCCCCCC(=O)O; Dab = NCC[C@H](N)C(=O)O; Dap = NC[C@H](N)C(=O)O; AEEA = NCCOCCOCC(=O)O

What follows are molecules tested against T1, PD-1/PD-L1 interaction (PE-labeled human PD-L1-Ig binding to Jurkat cell line over-expressing human PD-1) (Homo sapiens, UniProt Q15116) (assay: Jurkat-PD-1 Cell Binding High-Content Screening Assay (CBA)). Conditions: Jurkat cell line over-expressing human PD-1; PE-labeled PD-L1-Ig 20 nM final; read-out: Jurkat hPD1-PDL1 IC50.
T1 construct: expressed in transfected cells; host or cells: Jurkat
Format: cell-based
How it was run: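 Binding of fluorescent PD-L1-Ig (phycoerythrin on Ig tag, 20 nM final, 1 h) measured by high-content imaging of fixed, Hoechst-counterstained Jurkat-hPD-1 cells. Compound added 2 h at 37° C beforehand, in DMEM with 10% fetal calf serum.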

T1 sequence (Q15116 25-288): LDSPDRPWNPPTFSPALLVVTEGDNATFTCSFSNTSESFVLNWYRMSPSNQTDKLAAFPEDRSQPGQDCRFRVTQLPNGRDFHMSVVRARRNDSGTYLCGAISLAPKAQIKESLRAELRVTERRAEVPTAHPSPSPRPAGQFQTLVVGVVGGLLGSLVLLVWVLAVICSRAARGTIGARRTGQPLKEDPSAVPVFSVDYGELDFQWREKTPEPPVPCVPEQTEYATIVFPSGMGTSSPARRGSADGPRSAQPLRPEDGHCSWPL

| SMILES | IC50 |
| --- | --- |
| CCCC[C@H]1NC(=O)[C@H](CCCN)NC(=O)[C@H](C(C)C)NC(=O)[C@H](Cc2ccc(-c3ccccc3)cc2)NC(=O)[C@H](C(C)C)NC(=O)[C@H](Cc2cccc(C)c2)NC(=O)[C@H](CC(=O)O)NC(=O)[C@H](Cc2ccc(OCC(=O)O)cc2)NC(=O)[C@H](CN)NC(=O)CSC[C@@H](C(=O)N[C@@H](CCCCN)C(=O)NCCCCCCCCCCC(=O)O)NC(=O)[C@H](CN)NC(=O)[C@H](C(C)C)NC(=O)[C@H](CC2CCCCC2)NC(=O)[C@H](CCN)NC1=O [Compound 2685] ({CH2CO}-[Dap]Y(Carboxymethyl)D[Phe(3-Me)]V[Bip]V[Orn][dNle][Dab][Cha]V[Dap]CK[Aun]-OH; thioether N-14) | 11.6 nM |
| Cc1cccc(C[C@@H]2NC(=O)[C@H](CC(=O)O)NC(=O)[C@H](Cc3ccc(OCC(=O)O)cc3)NC(=O)[C@H](CN)NC(=O)CSC[C@@H](C(=O)N[C@@H](CCCCN)C(=O)NCCCCCCCCCCC(=O)O)NC(=O)[C@H](CN)NC(=O)[C@H](C(C)C)NC(=O)[C@H](CC3CCCCC3)NC(=O)[C@H](CCN)NC(=O)[C@@H](CC3CCCCC3)NC(=O)[C@H](CCCN)NC(=O)[C@H](C(C)C)NC(=O)[C@H](Cc3ccc(-c4ccccc4)cc3)NC(=O)[C@H](C(C)C)NC2=O)c1 [Compound 2686] ({CH2CO}-[Dap]Y(Carboxymethyl)D[Phe(3-Me)]V[Bip]V[Orn][dCha][Dab][Cha]V[Dap]CK[Aun]-OH; thioether N-14) | 16.1 nM |
| CCCC[C@H]1NC(=O)[C@H](CCCN)NC(=O)[C@H](C(C)C)NC(=O)[C@H](Cc2ccc(-c3ccccc3)cc2)NC(=O)[C@H](C(C)C)NC(=O)[C@H](Cc2cccc(C)c2)NC(=O)[C@H](CC(=O)O)NC(=O)[C@H](Cc2ccc(OCC(=O)O)cc2)NC(=O)[C@H](CN)NC(=O)CSC[C@@H](C(=O)N[C@@H](CCCCN)C(=O)NCCCCCCCCCCC(=O)O)NC(=O)[C@H](CCCN)NC(=O)[C@H](C(C)C)NC(=O)[C@H](CC2CCCCC2)NC(=O)[C@H](CCN)NC1=O [Compound 2687] ({CH2CO}-[Dap]Y(Carboxymethyl)D[Phe(3-Me)]V[Bip]V[Orn][dNle][Dab][Cha]V[Orn]CK[Aun]-OH; thioether N-14) | 10 nM |
| Cc1cccc(C[C@@H]2NC(=O)[C@H](CC(=O)O)NC(=O)[C@H](Cc3ccc(OCC(=O)O)cc3)NC(=O)[C@H](CN)NC(=O)CSC[C@@H](C(=O)N[C@@H](CCCCN)C(=O)NCCCCCCCCCCC(=O)O)NC(=O)[C@H](CCCN)NC(=O)[C@H](C(C)C)NC(=O)[C@H](CC3CCCCC3)NC(=O)[C@H](CCN)NC(=O)[C@@H](CC3CCCCC3)NC(=O)[C@H](CCCN)NC(=O)[C@H](C(C)C)NC(=O)[C@H](Cc3ccc(-c4ccccc4)cc3)NC(=O)[C@H](C(C)C)NC2=O)c1 [Compound 2688] ({CH2CO}-[Dap]Y(Carboxymethyl)D[Phe(3-Me)]V[Bip]V[Orn][dCha][Dab][Cha]V[Orn]CK[Aun]-OH; thioether N-14) | 15.6 nM |
| Cc1cccc(C[C@@H]2NC(=O)[C@H](CC(=O)O)NC(=O)[C@H](Cc3ccc(OCC(=O)O)cc3)NC(=O)[C@H](CN)NC(=O)CSC[C@@H](C(=O)NCCOCCOCC(=O)NCCCCCCCCCCC(=O)O)NC(=O)[C@H](CCCN)NC(=O)[C@H](C(C)C)NC(=O)[C@H](CC3CCCCC3)NC(=O)[C@H](CCN)NC(=O)[C@@H](CC(C)C)NC(=O)[C@H](CCCN)NC(=O)[C@H](Cc3ccc(O)cc3)NC(=O)[C@H](Cc3ccc(-c4ccccc4)cc3)NC(=O)[C@H](Cc3ccc(O)cc3)NC2=O)c1 [Compound 2691] ({CH2CO}-[Dap]Y(Carboxymethyl)D[Phe(3-Me)]Y[Bip]Y[Orn][dL][Dab][Cha]V[Orn]C[AEEA][Aun]-OH; thioether N-14) | 15 nM |
